Reference: US11993590B2, “Pyranone compounds useful to modulate OMA1 protease” (712 North Inc., priority 2016, dated 2024)
“And” between values parts separate entries of the source, which are not always exact repeats. Identical values can stand only once. “Also recorded” adds a separate entry of the source. Like-named read-outs stand apart in the source and are kept apart here.

Assays:
OMA1 [1] = experiment: OMA1 antagonist test: CCCP-induced OPA1 cleavage in HEK293T cells, OPA1 Western blot; assay type: cell-based, human; details: for proteolytic cleavage of large OPA1 isoforms upon CCCP: 2 hours before 10 μM CCCP for 30 min
Procedure: HEK293T cells were cultured and maintained in Dulbecco's Modified Eagle's Medium supplemented with 10% fetal bovine serum (FBS) and 2 mM […] in a 95% air-5% CO2 humidified atmosphere at 37° C. To test potential OMA1 antagonists, cells were seeded in 24-well plates and incubated over night to achieve around 90% confluency. For experiments the culture medium was replaced with Minimal Essential Medium and cells were pre-incubated with variable concentrations of the different test-compounds for 2 hours in a 95% air-5% CO2 humidified atmosphere at 37° C. After 2 hours, OMA1 protease was activated through the addition of carbonyl cyanide m-chlorophenyl hydrazone (CCCP; 10 μM final concentration) for 30 min in the presence of different concentrations of compounds to be tested. After 30 minutes, cells were immediately placed on ice, the medium removed, and cells harvested through addition of 100 μl RIPA buffer supplemented with protease inhibitor cocktail. Samples were separated on 8% tris-glycine gels and transferred onto nitro-cellulose membranes by Wester blotting. Membranes were immunolabeled with anti-OPA1 Antibodies (1:1,000) and with goat-anti-mouse Alkaline Phosphatase conjugated secondary antibodies (1:5,000). OPA1 protein was visualized with NBT/BCIP between 5 and 15 minutes before the reaction was stopped with an excess of distilled water.
CCCP is a potent mitochondrial oxidative phosphorylation uncoupler that activates OMA1 and creates conditions that allow OPA1 cleavage to occur.

OMA1 [2] = experiment: OMA1 agonist test: CCCP threshold of OMA1 activation/OPA1 cleavage in HEK293T cells; assay type: cell-based, human
OMA1 [3] = experiment: OPA1-Western blot of Hek293T cells incubated with tipranavir, OMA1 activated with CCCP or sorafenib; assay type: cell-based, human
Procedure: FIG. 28. […] OMA1 was activated with 3 μM CCCP for 30 minutes.
FIG. 29. Tipranavir can activate OMA1 at concentrations above 20 μM. […] OMA1 was then activated with 4 μM CCCP for 30 minutes in the indicated samples.
FIG. 30. […] OMA1 was then activated with either 3 μM CCCP or 30 μM sorafenib (SFB) for 30 minutes in the indicated samples.
Experimentally, OMA1 can be activated in cellular assays by the mitochondrial uncoupler [(3-chlorophenyl)hydrazono]propanedinitrile (CCCP).
Example 9. Tipranavir can activate OMA1 at concentrations above 20 μM. To further determine tipranavir's effect on OPA1, I incubated Hek293T cells for an hour with low doses of 0 μM, 20 μM and 40 μM tipranavir (FIG. 29).
Example 10. 100 μM tipranavir can inhibit OPA1 cleavage upon CCCP-treatment and upon sorafenib treatment. […] To investigate whether 100 μM tipranavir can inhibit CCCP-induced OPA1-cleavage or OPA1-cleavage induced by other agents as well, I incubated Hek293T cells for an hour with low doses of 0 μM, 50 μM or 100 μM tipranavir before activating OMA1 with either 3 μM CCCP or 30 μM sorafenib (see FIG. 30).

OMA1 [4] = details: 1% Isoflurane, 90 minutes twice daily, cited from earlier work
OMA1 [5] = experiment: OMA1 gene expression micro-arrays in rat brain; assay type: in vivo; details: 10 exposures
Procedure: Rats were exposed to 1% Isoflurane for 90 minutes twice daily for a total of 5 or 10 exposures, after which animals were sacrificed and brain samples analyzed by gene expression micro-arrays (Pan et al. 2006).

OMA1 [6] = experiment: OMA1 gene expression microarray in RS4.11 MLL leukemia cells; assay type: cell-based, human; details: RS4.11 cells, 10 μM SB216763, 20 hours
Procedure: Human MLL leukemia RS4.11 cells were cultured without or with 10 μM SB216763 for 20 hours (Wang et al. 2010). […] SB216763 is a kinase inhibitor and the finding that SB216763 can increase OMA1 levels was unexpected and is non-obvious to a person skilled in the arts. In context of the present invention SB216763 thus represents an agonist of OMA1 and/or an oligomeric complex comprising OMA1 as defined above. Accordingly, SB216763 represents a medical intervention in particular for the treatment, prevention and/or amelioration of a disorder or disease correlated with mitochondrial stress or dysfunction, a mitochondrial disorder or disease, or a disorder or disease characterized by OPA1 alterations.
Referring to FIG. 23, the GSK-3 inhibitor SB216763 (CAS #280744-09-4) represents an agonist of OMA1. […] RS4.11 cells were cultured for 20 hours without or with 10 μM SB216763, after which mRNA was isolated and analyzed by gene expression microarrays. Controls expressed OMA1 at 8.10 (±0.01 S.D.) and SB216763 treated cells expressed OMA1 at 8.7 (±0.18 S.D.).

OMA1 [7] = details: RS4.11 cells, 10 μM SB216763, 20 hours; cited from earlier work
OMA1 [8] = details: KMH2 cells, 20 mM glucosamine, 24 hours; cited from earlier work
OMA1 [9] = experiment: OMA1 gene expression microarray in KMH2 cells; assay type: cell-based, human; details: 20 mM glucosamine, 24 hours
Procedure: Human malignant lymphocytes (KMH2 cells) were cultured without or with 20 mM glucosamine (Carvalho et al. 2014). After 24 hours mRNA was isolated and analyzed by gene expression microarrays. Controls expressed OMA1 at 7.31 (±0.08 S.D.) and glucosamine treated cells expressed OMA1 at 6.69 (±0.06 S.D.). Glucosamine is a dietary supplement and its effects on mitochondria are known to a person skilled in the arts (Carvalho et al. 2014; Bond and Hanover 2015; Tan et al. 2017). […] In context of the present invention glucosamine thus represents an antagonist of OMA1 and/or an oligomeric complex comprising OMA1 as defined above. Accordingly, glucosamine represents a medical intervention in particular for the treatment, prevention and/or amelioration of a disorder or disease correlated with mitochondrial stress or dysfunction, a mitochondrial disorder or disease, or a disorder or disease characterized by OPA1 alterations.
Referring to FIG. 21, the dietary supplement glucosamine (CAS #3416-24-8) represents an antagonist of OMA1. […] KMH2 cells were cultured for 24 hours without or with 20 mM glucosamine, after which mRNA was isolated and analyzed by gene expression microarrays. Controls expressed OMA1 at 7.31 (±0.08 S.D.) and glucosamine treated cells expressed OMA1 at 6.69 (±0.06 S.D.).

OPA1 = details: cells cultured with the compound; cited from earlier work

SMILES: CC(C)ON(CC(=O)NO)S(=O)(=O)c1ccc(-c2ccccc2)cc1 [ARP100]
- proteolytic cleavage of large OPA1 isoforms upon CCCP (OMA1 [1]; 70 μM): all OPA1 isoforms including the large OPA1-L1 and OPA1-L2 isoforms were readily detectable; also recorded: The large OPA1-L1 and OPA1-L2 isoforms were still readily detectable

SMILES: N#CC(C#N)=NNc1cccc(Cl)c1 [CCCP, carbonyl cyanide m-chlorophenyl hydrazone]
- OPA1 processing by CCCP alone (OMA1 [2]; 0 μM, 3 μM and 5 μM CCCP, untreated (vehicle-only) cells): had no effect on OPA1 processing in untreated cells
- OPA1 cleavage / OMA1 activation by CCCP alone (OMA1 [2]; 7 μM CCCP, untreated (vehicle-only) cells): OPA1 was cleaved only at the highest concentration of 7 μM CCCP; also recorded: OMA1 was activated at the highest concentration of 7 μM CCCP
- L-OPA1 hydrolysis by CCCP alone (OMA1 [3]; 3 μM CCCP, 30 minutes): all L-OPA1 isoforms are hydrolyzed upon CCCP treatment
- OMA1 activation / OPA1 cleavage by CCCP alone (OMA1 [1]; 10 μM CCCP, 30 minutes): resulted in cleavage of both large OPA1-L1 and OPA1-L2 isoforms; also recorded: could activate OMA1, which resulted in the cleavage of the OPA1-L1 and OPA1-L2 isoforms

SMILES: FC(F)OC(Cl)C(F)(F)F (stereo not shown) [Isoflurane]
- OMA1 expression level in rat brain (OMA1 [4]; 5 exposures): 19.1 (±3.4 S.D.)
- OMA1 expression level in rat brain (OMA1 [4]; 10 exposures): 29.3 (±6.3 S.D.)
- increase of OMA1 gene expression in rat brain (OMA1 [5]): 180% and 280%

SMILES: Cn1cc(C2=C(c3ccc(Cl)cc3Cl)C(=O)NC2=O)c2ccccc21 [SB216763]
- increase of OMA1 gene expression levels (OMA1 [6]): 7.6%
- OMA1 expression level (OMA1 [7]): 8.7 (±0.18 S.D.)

SMILES: O=S(=O)(CC1CS1)c1ccc(Oc2ccccc2)cc1 (stereo not shown) [SB-3CT]
- OPA1 cleavage without CCCP (OMA1 [2]; 100 μM SB-3CT, 0 μM CCCP): did not show OPA1 alterations; also recorded: did not induce OPA1 cleavage without CCCP
- OPA1 cleavage / OMA1 activation at low CCCP (OMA1 [2]; 100 μM SB-3CT, 3 μM and 5 μM CCCP for 20 minutes): caused OPA1 cleavage to occur already at 3 μM and 5 μM CCCP; also recorded: OMA1 was already activated at lower concentrations of 3 μM and 5 μM CCCP

SMILES: O=C(O)CNC(=O)C(CS)Cc1ccccc1 (stereo not shown) [Thiorphan]
- proteolytic cleavage of large OPA1 isoforms upon CCCP (OMA1 [1]; 100 μM): all OPA1 isoforms including the two large OPA1-L1 and OPA1-L2 isoforms were readily detectable; also recorded: The large OPA1-L1 and OPA1-L2 isoforms were still readily detectable

SMILES: N[C@H]1C(O)O[C@H](CO)[C@@H](O)[C@@H]1O (stereo partly shown) [glucosamine]
- OMA1 expression level (OMA1 [8]): 6.69 (±0.06 S.D.)
- decrease of OMA1 gene expression levels (OMA1 [9]): 8.5%

SMILES: c1cnc2c(c1)ccc1cccnc12 [phenanthroline]
- OPA1 levels and OPA1L/OPA1S isoforms (OPA1): an increase in the OPA1L isoform
- proteolytic cleavage of large OPA1 isoforms upon CCCP (OMA1 [1]; 500 μM): The large OPA1-L1 and OPA1-L2 isoforms were still readily detectable; also recorded: inhibited proteolytic cleavage of OPA1 by OMA1

SMILES: CNC(=O)c1cc(Oc2ccc(NC(=O)Nc3ccc(Cl)c(C(F)(F)F)c3)cc2)ccn1 [sorafenib]
- OMA1 activation / OPA1 cleavage by sorafenib alone (OMA1 [3]; 30 μM sorafenib, 30 minutes): activate OMA1 and lead to OPA1 cleavage similar to CCCP

SMILES: CCC[C@@]1(CCc2ccccc2)CC(O)=C([C@H](CC)c2cccc(NS(=O)(=O)c3ccc(C(F)(F)F)cn3)c2)C(=O)O1 [tipranavir]
- concentration at which tipranavir can activate OMA1 (OMA1 [3]; Hek293T cells, 1 hour): above 20 μM
